Earlier results in patent US12091408B2, “Store overload-induced calcium release inhibitors and methods for producing and using the same” (UTI Limited Partnership, priority 2013, dated 2024).

How the values were obtained:
β-adrenergic receptor = settings: previously shown by the inventors; cited from earlier work
[1] = system: ventricular arrhythmias and sudden death; settings: mice, reported; via enhanced FKBP12.6 binding to RyR2; cited from earlier work

COc1ccccc1OCCNCC(O)COc1cccc2[nH]c3ccccc3c12 (stereo not drawn) [Compound 1, carvedilol]
β-blockade (order of magnitude) (β-adrenergic receptor): nanomolar

COc1ccc2c(c1)CN(C)CCS2 [Compound 99, S107]
suppression of ventricular arrhythmias and sudden death [1]: suppress ventricular arrhythmias and sudden death in mice

COc1ccc2c(c1)CN(C(=O)CCN1CCC(Cc3ccccc3)CC1)CCS2.Cl [Compound 102, JTV519]
suppression of ventricular arrhythmias and sudden death [1]: suppress ventricular arrhythmias and sudden death in mice
